Results reported in patent publication US4206215A, “Antimicrobial bis-[4-(substituted-amino)-1-pyridinium]alkanes” (Sterling Drug Inc., priority 1977, dated 1980).
Where two headings read alike, the source gives them in different places.

Assays:
S. Aureus Smith = assay: In vitro antibacterial activity, MIC (modified Autotiter method); type: cell-based, Staphylococcus aureus; details: for MIC: Staphylococcus aureus, 20 h, read-out: MIC S. Aureus Smith
Experimental: (§1) The antibacterial and antifungal activity of representative examples of the compounds of Formula I was determined using a modification of the Autotiter method described by Goss, et al. Applied Microbiology 16 (9) 1,414-1,416 (1968) in which a 1,000 mcg./ml. solution of the test compound is prepared. To the first cup of the Autotray is added 0.1 ml. of the test solution. Activation of the Autotiter initiates a sequence of operations by which 0.05 ml. of the test compound solution is withdrawn from the cup by a Microtiter transfer loop and diluted in 0.05 ml. of sterile water. Following this operation, 0.05 ml. of inoculated double-strength semisynthetic medium (glucose) is added automatically to each cup. The overall operation results in final drug concentrations ranging from 500 to 0.06 mcg./ml. in twofold decrements. […] The compounds were thus tested as solutions against a variety of gram positive and gram negative bacteria including Staphylococcus aureus, Proteus mirabilis, Escherichia coli, Klebsiella pneumoniae, Pseudomonas aeruginosa, Streptococcus pyogenes, and against such fungi as Aspergillus niger, Candida albicans and Trichophyton mentagrophytes.

E. coli 100/B22 = assay: as above; type: cell-based, Escherichia coli; details: Escherichia coli, 100/B22, 20 h, 18-20 hours at 37° C.; read-out: MIC E. coli 100/B22
Experimental: as §1

E. coli AB1932-1 = assay: as above; type: cell-based, Escherichia coli; details: Escherichia coli, AB19321, 20 h, 18-20 hours at 37° C.; read-out: MIC E. coli AB1932-1
Experimental: as §1

E. coli Vogel = assay: as above; type: cell-based, Escherichia coli; details: for MIC: Escherichia coli, 20 h, read-out: MIC E. coli Vogel
Experimental: as §1

K. pneum. 39645 = assay: as above; type: cell-based, Klebsiella pneumoniae; details: for MIC: Klebsiella pneumoniae, 20 h, read-out: MIC K. pneum. 39645
Experimental: as §1

P. mirab. MGH-1 = assay: as above; type: cell-based, Proteus mirabilis; details: for MIC: Proteus mirabilis, 20 h, read-out: MIC P. mirab. MGH-1
Experimental: as §1

Ps. aerug. MGH-2 = assay: as above; type: cell-based, Pseudomonas aeruginosa; details: for MIC: Pseudomonas aeruginosa, 20 h, read-out: MIC Ps. aerug. MGH-2
Experimental: as §1

S. pyogen. C203 = assay: as above; type: cell-based, Streptococcus pyogenes; details: for MIC: Streptococcus pyogenes, 20 h, read-out: MIC S. pyogen. C203
Experimental: as §1

A. niger 16404 = assay: In vitro antifungal activity, MIC (modified Autotiter method); type: cell-based, Aspergillus niger; details: for MIC: Aspergillus niger, 16404, 20 h, read-out: MIC A. niger 16404
Experimental: as §1

C. albicans 10231 = assay: as above; type: cell-based, Candida albicans; details: for MIC: Candida albicans, 10231, 20 h, read-out: MIC C. albicans 10231
Experimental: as §1

C. albicans Wisc. = assay: as above; type: cell-based, Candida albicans; details: Candida albicans, 20 h, 18-20 hours at 37° C.; read-out: MIC C. albicans Wisc.
Experimental: as §1

T. menta. 9129 = assay: as above; type: cell-based, Trichophyton mentagrophytes; details: for MIC: Trichophyton mentagrophytes, 20 h, read-out: MIC T. menta. 9129
Experimental: as §1

| SMILES | MIC (S. Aureus Smith; 18-20 hours at 37° C.) [µg/mL] | MIC (E. coli 100/B22) [µg/mL] | MIC (E. coli AB1932-1) [µg/mL] | MIC (E. coli Vogel; 18-20 hours at 37° C.) [µg/mL] | MIC (K. pneum. 39645; 18-20 hours at 37° C.) [µg/mL] | MIC (P. mirab. MGH-1; 18-20 hours at 37° C.) [µg/mL] | MIC (Ps. aerug. MGH-2; 18-20 hours at 37° C.) [µg/mL] | MIC (S. pyogen. C203; 18-20 hours at 37° C.) [µg/mL] | MIC (A. niger 16404; 18-20 hours at 37° C.) [µg/mL] | MIC (C. albicans 10231; 18-20 hours at 37° C.) [µg/mL] | MIC (C. albicans Wisc.) [µg/mL] | MIC (T. menta. 9129; 18-20 hours at 37° C.) [µg/mL] | further results |
| --- | --- | --- | --- | --- | --- | --- | --- | --- | --- | --- | --- | --- | --- |
| Clc1ccc(Nc2cc[n+](CCCCCC[n+]3ccc(Nc4ccc(Cl)cc4)cc3)cc2)cc1 [Example 77B, 1,6-bis-[4-(p-chlorophenylamino)-1-pyridinium]hexane dimethanesulfonate] | 3.9 | 15.6 | 3.9 | 15.6 | 500 | 500 | 500 | 1.95 | 62.5 | 62.5 | 125 | 15.6 |  |
| CCCCCCCCNc1cc[n+](CCCCCCCCCCCCCC[n+]2ccc(NCCCCCCCC)cc2)cc1 [Example 46, 1,14-bis-[4-(octylamino)-1-pyridinium]tetradecane dibromide] | 1 | 3.9 | 3.9 | 7.8 | 7.8 | 3.9 | 3.9 | 1.95 | 15.6 | 7.8 | 7.8 | 1.95 |  |
| CCCCCCNc1cc[n+](CCCCCCCC[n+]2ccc(NCCCCCC)cc2)cc1 [Example 32, 1,8-bis-[4-(hexylamino)-1-pyridinium]octane dibromide] | 0.24 | 3.9 | 1.95 | 3.9 | 7.8 | > 250 | 125 | 0.49 | 7.8 | 3.9 | 3.9 | 7.8 |  |
| CCCCCCCCNc1cc[n+](CCCCCCCCCCCC[n+]2ccc(NCCCCCCCC)cc2)cc1 [Example 45, 1,12-bis-[4-(octylamino)-1-pyridinium]dodecane dibromide] | 0.5 | 1.95 | 1.95 | 1.95 | 1 | 1.95 | 1.95 | 1 | 7.8 | 1 | 3.9 | 1 |  |
| Nc1cc[n+](CCCC[n+]2ccc(N)cc2)cc1 [III, 1,4-bis-(4-amino-1-pyridinium)butane dibromide, reference compound] | 125 |  |  | 250 | > 500 | > 500 | > 500 | 62.5 | 500 | > 500 |  | 500 |  |
| CCCCCCNc1cc[n+](CCCCCCCCC[n+]2ccc(NCCCCCC)cc2)cc1 [Example 19, 1,9-bis-[4-(hexylamino)-1-pyridinium]-nonane dibromide] | 0.39 | 1.95 | 1.95 | 1.95 | 3.9 | 125 | 125 | 0.49 | 15.6 | 1.95 | 3.9 | 3.9 |  |
| CCCCCCCCCNc1cc[n+](CCCCCCCCC[n+]2ccc(NCCCCCCCCC)cc2)cc1 [Example 50, 1,9-bis-[4-(nonylamino)-1-pyridinium]nonane dibromide] | 1.95 | 1.95 | 3.9 | 1.95 | 3.9 | 3.9 | 3.9 | 1.95 | 7.8 | 3.9 | 3.9 | 1.95 |  |
| CCCCCCCCCCCCNc1cc[n+](CCCCCCCCC[n+]2ccc(NCCCCCCCCCCCC)cc2)cc1 [Example 73, 1,9-bis-[4-(dodecylamino)-1-pyridinium]nonane dibromide] | 7.8 | 62.5 | > 62.5 | 62.5 | > 62.5 | 62.5 | > 62.5 | 15.6 | > 62.5 | > 62.5 | 31.3 | 7.8 |  |
| Clc1ccc(Nc2cc[n+](CCCCC[n+]3ccc(Nc4ccc(Cl)cc4)cc3)cc2)cc1 [Example 80, 1,5-bis-[4-(p-chlorophenylamino)-1-pyridinium]pentane dibromide] | 7.8 | 125 | 31.3 | 125 | > 125 | > 125 | > 125 | 1.95 | 62.5 | 62.5 | 62.5 | 15.6 |  |
| Nc1cc[n+](CCCCCCCCCCCC[n+]2ccc(N)cc2)cc1 [V, 1,12-bis-(4-amino-1-pyridinium)dodecane dibromide, reference compound] | 1.95 |  |  | 62.5 | > 62.5 | > 125 | > 62.5 | 1 | 31.3 | 31.3 |  | 3.9 |  |
| CC(CCCCCCCCC[n+]1ccc(N)cc1)[n+]1ccc(N)cc1 (stereo not drawn) [VI, 1,10-bis-(4-amino-1-pyridinium)-1-methyldecane dibromide, reference compound] | 15.6 |  |  | 250 | 500 | > 500 | > 500 | 15.6 | 250 | 31.3 |  | 15.6 |  |
| CCCCCCCCNc1cc[n+](CCCCCCCCCC[n+]2ccc(NCCCCCCCC)cc2)cc1 [Example 10C, 1,10-bis-[4-(octylamino)-1-pyridinium]decane bis(1-oxo-2-pyridinethiolate)] |  |  |  |  |  |  |  |  |  |  |  |  | MIC S. Aureus Smith (S. Aureus Smith; 18-20 hours at 37° C.): 1.0 µg/mL; MIC E. coli Vogel (E. coli Vogel; 18-20 hours at 37° C.): 1.0 µg/mL; MIC K. pneum. 39645 (K. pneum. 39645; 18-20 hours at 37° C.): 1.95 µg/mL; MIC P. mirab. MGH-1 (P. mirab. MGH-1; 18-20 hours at 37° C.): 1.95 µg/mL; MIC Ps. aerug. MGH-2 (Ps. aerug. MGH-2; 18-20 hours at 37° C.): 3.9 µg/mL; MIC S. pyogen. C203 (S. pyogen. C203; 18-20 hours at 37° C.): 0.5 µg/mL; MIC A. niger 16404 (A. niger 16404; 18-20 hours at 37° C.): 1.95 µg/mL; MIC C. albicans 10231 (C. albicans 10231; 18-20 hours at 37° C.): 1.0 µg/mL; MIC T. menta. 9129 (T. menta. 9129; 18-20 hours at 37° C.): 1.0 µg/mL |
| Cc1cc(N)cc[n+]1CCCCCCCC[n+]1ccc(N)cc1C [VIII, 1,8-bis-(4-amino-2-methyl-1-pyridinium)octane dibromide, reference compound] |  |  |  |  |  |  |  |  |  |  |  |  | MIC (S. Aureus Smith): 31.3 µg/mL; MIC (E. coli Vogel): > 250 µg/mL; MIC (K. pneum. 39645): 500 µg/mL; MIC (P. mirab. MGH-1): > 500 µg/mL; MIC (Ps. aerug. MGH-2): > 500 µg/mL; MIC (S. pyogen. C203): 7.8 µg/mL; MIC (A. niger 16404): 125 µg/mL; MIC (C. albicans 10231): 125 µg/mL; MIC (T. menta. 9129): 15.6 µg/mL |
| Nc1cc[n+](CCCCCC[n+]2ccc(N)cc2)cc1 [IV, 1,6-bis-(4-amino-1-pyridinium)hexane dibromide, reference compound] | 125 |  |  | 250 | > 500 | > 500 | > 500 | 62.5 | 500 | > 500 |  | > 500 |  |
| Cc1cc(N)cc[n+]1CCCCCCCCC[n+]1ccc(N)cc1C [IX, 1,9-bis-(4-amino-2-methyl-1-pyridinium)nonane dibromide, reference compound] | 3.9 |  |  | 31.3 | 250 | > 500 | > 500 | 3.9 | 31.3 | 31.3 |  | 7.8 |  |
| Nc1cc[n+](CCCCCCCCC[n+]2ccc(N)cc2)cc1 [VII, 1,9-bis-(4-amino-1-pyridinium)nonane dibromide, reference compound] | 31.3 |  |  | 250 | 500 | > 500 | > 500 | 7.8 | 250 | 31.3 |  | 15.6 |  |
